Source: ChEMBL document CHEMBL1146350, “Synthesis of some new bioactive 3-amino-2-mercapto-5,6,7,8-tetrahydro[1]benzothieno[2,3-d]pyrimidin-4(3H)-one derivatives” (2007)
Values after ≈ are worked out from the molar mass of the structure shown. Active and inactive are the calls of the source. No cut-off for these calls is given here.

Columns and labels:
Escherichia coli = test: Antibacterial activity against Escherichia coli ATCC 25922 by disc diffusion method; format: functional; settings: for MIC: Escherichia coli, ATCC 25922
Klebsiella pneumoniae = test: Antibacterial activity against Klebsiella pneumoniae by disc diffusion method; format: functional; settings: for MIC: Klebsiella pneumoniae
Trichophyton benhamiae = test: Antifungal activity against Trichophyton mentagrophytes by serial plate dilution method; format: functional, Arthroderma benhamiae; settings: for MIC: Trichophyton benhamiae
Pseudomonas aeruginosa = test: Antibacterial activity against Pseudomonas aeruginosa ATCC 27853 by disc diffusion method; format: functional; settings: for MIC: Pseudomonas aeruginosa, ATCC 27853
Aspergillus flavus = test: Antifungal activity against Aspergillus flavus NCIM 524 by serial plate dilution method; format: functional; settings: for MIC: Aspergillus flavus, NCIM 524
Aspergillus fumigatus = test: Antifungal activity against Aspergillus fumigatus NCIM 902 by serial plate dilution method; format: functional; settings: for MIC: Aspergillus fumigatus, NCIM 902
Staphylococcus aureus = test: Antibacterial activity against Staphylococcus aureus ATCC 25923 by disc diffusion method; format: functional
Talaromyces marneffei = test: Antifungal activity against Penicillium marneffei by serial plate dilution method; format: functional; settings: for MIC: Talaromyces marneffei
Mus musculus [1] = test: Anticonvulsant activity in Swiss Albino mouse assessed as duration of seizure at 50 mg/kg, po by PTZ induced seizure test; format: functional
Mus musculus [2] = test: Anticonvulsant activity in Swiss Albino mouse assessed as mortality at 50 mg/kg, po by PTZ induced seizure test; format: functional, organism-based; design: dose 50 mg/kg
Mus musculus [3] = test: Anticonvulsant activity in Swiss Albino mouse assessed as duration of seizure at 2 mg/kg, po by PTZ induced seizure test; format: functional
Rattus norvegicus = test: Antiinflammatory activity in Wister Albino rat assessed as inhibition of paw edema at 50 mg/kg, po after 3hrs; format: functional
[4] = Staphylococcus aureus, ATCC 25923, read-out: MIC

Row | SMILES | inhibition zone (IZ) (Escherichia coli) [mm] | MIC (Escherichia coli) [µg/mL] | inhibition zone (IZ) (Klebsiella pneumoniae) [mm] | MIC (Klebsiella pneumoniae) [µg/mL] | inhibition zone (IZ) (Trichophyton benhamiae) [mm] | MIC (Trichophyton benhamiae) [µg/mL] | inhibition zone (IZ) (Pseudomonas aeruginosa) [mm] | MIC (Pseudomonas aeruginosa) [µg/mL] | inhibition zone (IZ) (Aspergillus flavus) [mm] | MIC (Aspergillus flavus) [µg/mL] | inhibition zone (IZ) (Aspergillus fumigatus) [mm] | MIC (Aspergillus fumigatus) [µg/mL] | inhibition zone (IZ) (Staphylococcus aureus) [mm] | MIC (Staphylococcus aureus; [4]) [µg/mL] | inhibition zone (IZ) (Talaromyces marneffei) [mm] | MIC (Talaromyces marneffei) [µg/mL] | Activity (Mus musculus [1]) [s] | Activity (Mus musculus [2]) | Activity (Mus musculus [3]) [s] | inhibition in vivo at 50 mg/kg (Rattus norvegicus) [%] | also measured
1 | O=c1c2c3c(sc2nc2sc(-c4cc(Cl)cc(Cl)c4)nn12)CCCC3 | 8 | > 100 | 6 | > 100 | 6 | > 100 | 8 | > 100 | 6 | > 100 | 5 | > 100 | 8 | > 100 | 5 | > 100 | – | – | – | – | –
2 | Nn1c(SCC(=O)c2cc3ccccc3oc2=O)nc2sc3c(c2c1=O)CCCC3 | 18 | 12.5 (≈ 28.4 µM) | 22 | < 6.25 | 8 | > 100 | 8 | > 100 | 12 | 80 (≈ 182 µM) | 8 | > 100 | 22 | 6.25 (≈ 14.2 µM) | 6 | > 100 | 30 | inactive | 56 | 6.67 | –
3 | OC(Cn1cncn1)(Cn1cncn1)c1ccc(F)cc1F [FLUCONAZOLE] | – | – | – | – | 19 | < 6.25 | – | – | 18 | < 6.25 | 21 | < 6.25 | – | – | 21 | < 6.25 | – | – | – | – | –
4 | CCCc1nn2c(=O)c3c4c(sc3nc2s1)CCCC4 | 18 | 10 (≈ 32.7 µM) | 26 | 6.25 (≈ 20.5 µM) | 6 | > 100 | 22 | 10 (≈ 32.7 µM) | 28 | < 6.25 | 26 | < 6.25 | 20 | 10 (≈ 32.7 µM) | 19 | 12.5 (≈ 40.9 µM) | 75 | inactive | 73 | 30.8 | –
5 | O=c1c2c3c(sc2nc2sc(CCl)nn12)CCCC3 | – | – | – | – | – | – | – | – | – | – | – | – | – | – | – | – | 450 | inactive | 70 | – | –
6 | COc1ccc(C(=O)CSc2nc3sc4c(c3c(=O)n2N)CCCC4)cc1 | 8 | > 100 | 18 | 12.5 (≈ 31.1 µM) | 4 | > 100 | 8 | > 100 | 12 | 80 (≈ 199 µM) | 16 | 12.5 (≈ 31.1 µM) | 8 | > 100 | 8 | > 100 | 450 | inactive | 41 | – | –
7 | Nn1c(SCC(=O)c2ccccc2)nc2sc3c(c2c1=O)CCCC3 | 8 | > 100 | 8 | > 100 | 8 | > 100 | 8 | > 100 | 10 | 80 (≈ 215 µM) | 8 | > 100 | 18 | 12.5 (≈ 33.6 µM) | 6 | > 100 | – | – | – | 4.44 | –
8 | Nn1c(SCC(=O)c2ccc(Cl)cc2)nc2sc3c(c2c1=O)CCCC3 | 8 | > 100 | 6 | > 100 | 8 | > 100 | 18 | 12.5 (≈ 30.8 µM) | 6 | > 100 | 8 | > 100 | 8 | > 100 | 6 | > 100 | 255 | inactive | 400 | – | –
9 | CN[C@@H]1[C@H](O[C@H]2[C@H](O[C@H]3[C@H](O)[C@@H](O)[C@H](N=C(N)N)[C@@H](O)[C@@H]3N=C(N)N)O[C@@H](C)[C@]2(O)C=O)O[C@@H](CO)[C@H](O)[C@H]1O (stereo in doubt) [STREPTOMYCIN] | 20 | < 6.25 | 24 | < 6.25 | – | – | 24 | < 6.25 | – | – | – | – | 21 | – | – | – | – | – | – | – | MIC (Staphylococcus aureus): <6.25 ug/sq.cm
10 | Nn1c(SCC(=O)c2ccc(O)c(O)c2)nc2sc3c(c2c1=O)CCCC3 | 10 | 80 (≈ 198 µM) | 10 | 80 (≈ 198 µM) | 8 | > 100 | 16 | 60 (≈ 149 µM) | 6 | > 100 | 8 | > 100 | 16 | 60 (≈ 149 µM) | 6 | > 100 | 270 | inactive | 62 | – | –
11 | O=c1c2c3c(sc2nc2sc(-c4ccc([N+](=O)[O-])cc4)nn12)CCCC3 | 8 | > 100 | 20 | 10 (≈ 26 µM) | 6 | > 100 | 9 | 100 (≈ 260 µM) | 10 | 80 (≈ 208 µM) | 5 | > 100 | 8 | > 100 | 6 | > 100 | 40 | inactive | 56 | 48.9 | –
12 | O=c1c2c3c(sc2nc2sc(-c4ccccc4)nn12)CCCC3 | 9 | 100 (≈ 295 µM) | 16 | 60 (≈ 177 µM) | 7 | > 100 | 18 | 60 (≈ 177 µM) | 7 | > 100 | 18 | 12.5 (≈ 36.8 µM) | 18 | 60 (≈ 177 µM) | 16 | 12.5 (≈ 36.8 µM) | 65 | inactive | 58 | 24.4 | –
13 | O=c1c2c3c(sc2nc2sc(=S)[nH]n12)CCCC3 | – | – | – | – | – | – | – | – | – | – | – | – | – | – | – | – | 39 | inactive | 56 | 7.69 | –
14 | CCc1nn2c(=O)c3c4c(sc3nc2s1)CCCC4 | 10 | 80 (≈ 275 µM) | 22 | 10 (≈ 34.3 µM) | 6 | > 100 | 18 | 10 (≈ 34.3 µM) | 8 | > 100 | 6 | > 100 | 8 | > 100 | 6 | > 100 | 185 | inactive | 110 | 51.1 | –
15 | O=c1c2c3c(sc2nc2sc(Cc4ccccc4)nn12)CCCC3 | 10 | 80 (≈ 226 µM) | 8 | > 100 | 6 | > 100 | 10 | 80 (≈ 226 µM) | 10 | 80 (≈ 226 µM) | 6 | > 100 | 8 | > 100 | 6 | > 100 | – | – | – | – | –
16 | Cc1cccc(-c2nn3c(=O)c4c5c(sc4nc3s2)CCCC5)c1 | 8 | > 100 | 10 | 80 (≈ 226 µM) | 4 | > 100 | 20 | 10 (≈ 28.3 µM) | 6 | > 100 | 18 | 12.5 (≈ 35.4 µM) | 20 | 10 (≈ 28.3 µM) | 18 | 12.5 (≈ 35.4 µM) | 220 | inactive | 51 | 51.1 | –
17 | Nn1c(SCC(=O)c2ccnc(Cl)c2)nc2sc3c(c2c1=O)CCCC3 | 8 | > 100 | 10 | 80 (≈ 197 µM) | 8 | > 100 | 8 | > 100 | 6 | > 100 | 10 | 80 (≈ 197 µM) | 10 | 80 (≈ 197 µM) | 6 | > 100 | – | – | – | – | –
